Experimental data from patent US7528107B2, “Methods of treating inflammation in mammalian tissues comprising administering human alpha-defensins” (Auburn University, priority 2005, dated 2009).
Entries after “also recorded” stand apart in the source; their conditions may differ.

Key:
Assay type in all cases: cell-based
[1] = tested on: IL-1β release from human monocytes; assay: ATP mediated proIL-1β / mature IL-1β release from LPS-activated human monocytes (FIG. 2, FIG. 3); settings: for processing of proIL-1β after it is released extracellularly: LPS-activated human monocytes treated with ATP, then α-defensins; for ATP-mediated IL-1β release from human monocytes: summary statement
Method: (§1) Lipopolysaccharide (LPS) activated, ^35S-methionine-labeled human monocytes treated with human α-defensins HNP-1 or HD-5 in the presence and absence of ATP were examined. Media and cell-associated fractions were harvested separately and IL-1β was recovered from each by immunoprecipitation. The resulting immuno-precipitates were analyzed by SDS-PAGE and autoradiography. Referring now to FIG. 2, in the absence of ATP, LPS activated monocytes released about 10% of ^35S-methionine-labeled proIL-1β (31 kDa) into the media, but no mature (17 kDa) IL-1β was detected. As expected, addition of ATP to the LPS-activated monocyte culture led to the release of 90% of newly synthesized proIL-1β from the cell and more than 90% of the proIL-1β was processed to mature IL-1β and detected in the media.
(§2) Peripheral blood monocytes where isolated from healthy volunteers and patients with inflammatory bowel disease and suspended in monocyte maintenance medium (RPMI 1640 medium, 5% FBS 25 mM HEPES and 1% Pen/Strep). Blood samples from healthy volunteers were collected at the Auburn University Medical Clinic under an approved protocol. Blood samples from inflammatory bowel disease patients were provided by Dr. W. Park McGehee of Internal Medicine Associates of Opelika, Ala., U.S.A.
(§3) Monocytes were first primed with lipopolysaccharides (LPS). Monocytes were allowed to adhere for two hours, after which medium supernatants were discarded. Attached cells were rinsed twice with maintenance medium and incubated in 1 ml of maintenance medium overnight at 37° C. in a 5% CO2 environment. The following morning LPS was added to some walls to achieve a final concentration of 10 ng/ml and the cultures were activated for two hours at 37° C. The media was then removed and 1 ml of fresh medium (RPMI 1640 containing 1% FVS 25 mM HEPES and 5 mM NaHCO3) was added to each well. These LPS-activated monocytes where then treated with ATP and subsequently, monocytes were selectively treated with α-defensins for interleukin-1β post transitional processing and release studies.
Human α-defensin HNP-1 was obtained from Peptide International of Louisville, Ky., U.S.A. Recombinant human α-defensin HD-5 was provided by Dr. Edith Porter of California State University, Los Angeles, U.S.A. The quality of the synthetic peptides were verified by their anti-bacterial activity. Synthetic human α-defensin HNP-1 was further purified by HPLC and compared to the natural HNP-1 by acid-urea PAGE. LPS-activated human monocytes were treated with 0, 1, 10 and 100 micrograms at 37° C. for three hours. It was also treated with 2 mm ATP for IL-1β maturation. Supernatants were then collected after a 5 minute centrifugation in microphage tubes. The concentration of mature IL-1β and the supernatants was quantified by ELISA(R&D Systems). Because the ELISA is reported by the manufacturer to recognize both pro and mature IL-1β species, presence of proIL-1β and mature IL-1β in the supernatant and cell lysates was also determined by western blot analysis. Briefly, proteins were precipitated from the supernatants by addition of trichloroacetic acid (TCA: 7.5% final concentration) and cholic acid (0.1% final concentration) to each sample. The percipate proteins were washed twice with 100% acetone to extract residual TCA and dissolved in 0.1 ml of SDS-PAGE sampled buffer. The cells where then washed once with PBS and lysed into 0.2 ml of lysis washed once with PBS and lysed into 0.2 ml of lysis buffer (25 mM HEPES 300 mM NaCl 1.5 mM MgCl2, 0.2 mM EDTA, 1% triton X-100, 2 mg/ml leupeptin and 10 mg/ml PMF). Cell lysates and TSA precipitated proteins from the supernatants where then subjected to 12% SDS-PAGE gels and then transferred to PVDV membranes for western blot analysis. IL-1β was probed with goat anti-IL-1β antibody and detected with the rabbit anti-goat IgG-horesradish peroxidase conjugate. […]

[2] = tested on: IL-1β release from human monocytes; assay: as above
[3] = tested on: IL-1β release from human monocytes; assay: proIL-1β / mature IL-1β release from LPS-activated human monocytes (FIG. 2); settings: for mature IL-1β in LPS activated cells / proIL-1β in LPS activated cells: overall statement, no concentration given; for LPS-mediated IL-1β release from human monocytes: summary statement
Method: as §1, §2, §3
Human α-defensin HNP-1 was obtained from Peptide International of Louisville, Ky., U.S.A. Recombinant human α-defensin HD-5 was provided by Dr. Edith Porter of California State University, Los Angeles, U.S.A. The quality of the synthetic peptides were verified by their anti-bacterial activity. Synthetic human α-defensin HNP-1 was further purified by HPLC and compared to the natural HNP-1 by acid-urea PAGE. LPS-activated human monocytes were treated with 0, 1, 10 and 100 micrograms at 37° C. for three hours. It was also treated with 2 mm ATP for IL-1β maturation. Supernatants were then collected after a 5 minute centrifugation in microphage tubes. The concentration of mature IL-1β and the supernatants was quantified by ELISA(R&D Systems). Because the ELISA is reported by the manufacturer to recognize both pro and mature IL-1β species, presence of proIL-1β and mature IL-1β in the supernatant and cell lysates was also determined by western blot analysis. Briefly, proteins were precipitated from the supernatants by addition of trichloroacetic acid (TCA: 7.5% final concentration) and cholic acid (0.1% final concentration) to each sample. The percipate proteins were washed twice with 100% acetone to extract residual TCA and dissolved in 0.1 ml of SDS-PAGE sampled buffer. The cells where then washed once with PBS and lysed into 0.2 ml of lysis washed once with PBS and lysed into 0.2 ml of lysis buffer (25 mM HEPES 300 mM NaCl 1.5 mM MgCl2, 0.2 mM EDTA, 1% triton X-100, 2 mg/ml leupeptin and 10 mg/ml PMF). Cell lysates and TSA precipitated proteins from the supernatants where then subjected to 12% SDS-PAGE gels and then transferred to PVDV membranes for western blot analysis. IL-1β was probed with goat anti-IL-1β antibody and detected with the rabbit anti-goat IgG-horesradish peroxidase conjugate.

[4] = tested on: IL-1β release from human monocytes
[5] = addition of ATP to the LPS-activated monocyte culture, 35S-methionine label
[6] = FIG. 3 columns 5 and 6, 20 and 100 μg/ml of HD-1, 1 mM ATP, 3 hours
[7] = overall statement, no concentration given
[8] = physiological concentrations of 5 ug to 100 ug/ml
[9] = FIG. 2 column 3, 20 ng/ml LPS + ATP + YVAD-CMK 100 μM
[10] = FIG. 3 columns 2-4, 20-100 μg/ml of HNP-1, 1 mM ATP, 3 hours
[11] = FIG. 2 column 7, 10 ng/ml LPS 2 hours
[12] = FIG. 2 columns 8 and 9, increase of 20-50 mg HNP-1

Row | Molecule | processing of proIL-1β after it is released extracellularly [1] | ATP mediated proIL-1β release [1, 7] | ATP mediated proIL-1β release [1, 8] | ATP-mediated IL-1β release from human monocytes [1] | mature IL-1β in LPS activated cells [3] | proIL-1β in LPS activated cells [3] | LPS-mediated IL-1β release from human monocytes [3] | Staphylococcus aureus alpha-toxin-mediated IL-1β release from human monocytes [4] | further results
1 | Nc1ncnc2c1ncn2[C@@H]1O[C@H](COP(=O)(O)OP(=O)(O)OP(=O)(O)O)[C@@H](O)[C@H]1O [ATP, Adenosine triphosphate, reference compound] |  |  |  |  |  |  |  |  | proIL-1β processed to mature IL-1β and detected in the media [1, 5]: more than 90%; release of newly synthesized proIL-1β from the cell [1, 5]: 90%
2 | human α-defensin 5 (ATCYCRTGRCATRESLSGVCEISGRLYRLCCR; ALPHA DEFENSIN HD-5; listed as Homo sapiens) [Recombinant human α-defensin produced by Paneth cells] | does not appear to affect | blocked in a dose dependant manner; also recorded: block ATP mediated proIL-1β release in a dose dependant manner | blocked ATP mediated proIL-1β release in a dose dependant manner | blocks | substantially completely block | inhibit; also recorded: substantially completely block | blocks | blocks | mature IL-1β from ATP activated human monocytes [2, 6]: inhibited in a dose dependant manner; proIL-1β release from ATP activated human monocytes [2, 6]: no proIL-1β is released; release of proIL-1β from the LPS-activated monocyte culture ([3]; 10 ug/ml of HD-5, FIG. 2): completely blocked; proIL-1β expressed (western blot) ([3]; FIG. 2 columns 4, 5, 6, increasing amount of HD-5, 4 million cell equivalents activated with LPS): no proIL-1β
3 | CC(=O)N[C@@H](Cc1ccc(O)cc1)C(=O)N[C@H](C(=O)N[C@@H](C)C(=O)N[C@@H](CC(=O)O)C(=O)CCl)C(C)C [YVAD-CMK, reference compound] |  |  |  |  |  |  |  |  | mature IL-1β produced (western blot) [2, 9]: no mature IL-1β proteins; proIL-1β produced (western blot) [2, 9]: substantial amount of proIL-1β
4 | human neutrophil defensin 1 [HNP-1] | does not appear to affect | blocked in a dose dependant manner; also recorded: block ATP mediated proIL-1β release in a dose dependant manner | blocked ATP mediated proIL-1β release in a dose dependant manner | blocks | substantially completely block | inhibit; also recorded: substantially completely block | blocks | blocks | mature IL-1β from ATP activated cells [2, 10]: inhibited in a dose dependant manner; proIL-1β release from ATP activated cells [2, 10]: no proIL-1β is released; proIL-1β production ([3]; 20 ug/ml of HNP-1, FIG. 2): sufficient to block; mature IL-1β (western blot) [3, 11]: no mature IL-1β; proIL-1β (western blot) [3, 11]: some proIL-1β; mature IL-1β (western blot) [3, 12]: no mature IL-1β proteins were produced; proIL-1β (western blot) [3, 12]: no proIL-1β
